Test results as given in patent publication US4308201A, “Phenylalanylvalylarginine derivative, process for producing same and method for measuring activity of enzymes using same” (Torii & Co., Ltd., priority 1978, dated 1981).
Residues, ends and D or L forms follow the SMILES beside them. *: point of attachment. pNA = O=[N+]([O-])c1ccc(N*)cc1; Bz = O=C(c1ccccc1)*

Key:
Assay type in all cases: biochemical
Urokinase = assay: Measurement of the activity of urokinase with the compound as substrate; settings: methods of Example 3 and Comparative Example 2; p-nitroanilide substrate = 1.0
Kallikrein Plasma = assay: Measurement of the activity of plasma kallikrein with the compound as substrate; settings: methods of Example 3 and Comparative Example 2; p-nitroanilide substrate = 1.0
Kallikrein Tissue = assay: Measurement of the activity of tissue kallikrein with the compound as substrate; settings: methods of Example 3 and Comparative Example 2; p-nitroanilide substrate = 1.0
Factor Xa = assay: Measurement of the activity of Factor Xa with the compound as substrate; settings: methods of Example 3 and Comparative Example 2; p-nitroanilide substrate = 1.0
thrombin = assay: Measurement of the activity of thrombin with the compound as substrate (naphthol liberated, FVB colour, absorbance); settings: for relative sensitivity, Thrombin: methods of Example 3 and Comparative Example 2, p-nitroanilide substrate = 1.0
Method: To 1.7 ml of 50 mM phosphate buffer solution (pH 7.0) were added 0.1 ml of thrombin at various concentrations and 0.2 ml of N-benzoyl-L-phenylalanyl-L-valyl-L-arginine 1-naphthyl ester hydrochloride solution (1.5 mM), and the resulting mixture was subjected to incubation at 25° C. for 30 min. The mixture was cooled in iced water, and 0.1 ml of 1% FVB was added thereto. The resulting mixture was allowed to stand at 0° C. for 10 min, and 1 ml of glacial acetic acid was further added thereto. The color thus developed was measured as absorbance (505 nm) by means of a spectrophotometer, thereby determining the amount of the naphthol liberated by hydrolysis with the enzyme. As a control, the buffer solution same as above but free from thrombin was used. The amount of the naphthol liberated corresponded to the activity of the enzyme.
To 0.1 ml of thrombin were added 0.3 ml of Nα-tosyl-L-arginine methyl ester hydrochloride solution (10 micromoles/0.4 ml of 5% DMSO) and 0.6 ml of phosphate buffer solution (pH 7.4), and the resulting mixture was subjected to incubation at 37° C. for 30 min, after which 1.5 ml of a hydroxylamine solution (a mixture of equal amounts of 2 M NH2 OH hydrochloride and 3.5 M NaOH) was added thereto. The resulting mixture was allowed to stand at room temperature for 15 min. Thereto were added 1 ml of 18% trichloroacetic acid solution, 1 ml of 4 N hydrochloric acid, and 1 ml of 10% ferric chloride solution. The resulting mixture was thoroughly stirred and then centrifuged at 3,000 r.p.m. for 10 min. The color thus developed of the supernatant was measured as absorbance (530 l nm) by means of a spectrophotometer. The value obtained corresponds to the amount of the substrate remaining unhydrolyzed with thrombin, and therefore, and activity of the enzyme corresponds to the difference between the value obtained when no enzyme was used (control) and the value obtained after the enzyme reaction.
To 2.15 ml of […] tris HCl buffer solution (pH 8.0) were added 0.1 ml of thrombin at various concentrations and 0.25 ml of an N-benzoyl-L-phenylalanyl-L-valyl-L-arginine p-nitroanilide hydrochloride solution (1mM/H2 O), and the resulting mixture was subjected to incubation at 37° C. for 30 min. To the mixture was added 0.3 ml of glacial acetic acid, and the color developed was measured as absorbance (405 nm) by means of a spectrophotometer.

SMILES | relative sensitivity, Urokinase (Urokinase) | relative sensitivity, Kallikrein Plasma (Kallikrein Plasma) | relative sensitivity, Kallikrein Tissue (Kallikrein Tissue) | relative sensitivity, Factor Xa (Factor Xa) | relative sensitivity, Thrombin (thrombin) | sensitivity relative to that of Nα-tosyl-L-arginine methyl ester (thrombin; thrombin activity measured with the compound as substrate) | detection sensitivity relative to Comparative Example 2 (thrombin; versus N-benzoyl-L-phenylalanyl-L-valyl-L-arginine p-nitroanilide hydrochloride as substrate, standard curves of the drawing) | detection sensitivity relative to Comparative Example 1 (thrombin; versus Nα-tosyl-L-arginine methyl ester hydrochloride as substrate (hydroxamate method), standard curves of the drawing)
CC(C)[C@H](NC(=O)[C@H](Cc1ccccc1)NC(=O)c1ccccc1)C(=O)N[C@@H](CCCNC(=N)N)C(=O)Oc1cccc2ccccc12.Cl [N-benzoyl-L-phenylalanyl-L-valyl-L-arginine 1-naphthyl ester hydrochloride] | 40 | 12.5 | 30 | 15 | 5.0 | about 31 times | about 5 times | about 30 times
CC(C)[C@H](NC(=O)[C@H](Cc1ccccc1)NC(=O)c1ccccc1)C(=O)N[C@@H](CCCNC(=N)N)C(=O)Nc1ccc([N+](=O)[O-])cc1.Cl [N-benzoyl-L-phenylalanyl-L-valyl-L-arginine p-nitroanilide hydrochloride, reference compound] (Bz-Phe-Val-Arg-pNA) | 1.0 | 1.0 | 1.0 | 1.0 | 1.0 | – | – | –
